Test results taken from US20170058314A1, “NOVEL METHODOLOGY FOR IDENTIFYING ANTI-PERSISTER ACTIVITY AND ANTIMICROBIAL SUSCEPTIBILITY FOR BORRELIA BURGDORFERI AND OTHER BACTERIA” (priority 2014, published 2017).
≈ marks a conversion by molar mass, not a printed value. Where a name gives a salt, the structure may show the parent alone. Read-outs that look alike come from different tables or passages of the source. Blank lines part the entries; values can stand above or below the molecule they belong to.

How the values were obtained:
[1] = tested on: B. burgdorferi (growing, strain B31); assay: MIC determination, standard microdilution method; assay type: cell-based, Borrelia burgdorferi; details: for sensitivity of log phase / multiplying B. burgdorferi (words, FIG. 12): MIC test
[2] = tested on: stationary phase B. burgdorferi persisters (strain B31); assay: NCI compound library screen, SYBR Green I/PI assay (plate reader); details: for viability at 20 µM / viability at 50 µM: Borreliella burgdorferi, 168 h; for Residual viable cells (%) 20 μM (SYBR Green I/PI assay): seven day old stationary phase; for Residual viable cells (%) 20 μM (SYBR Green I/PI assay) / Residual viable cells (SYBR Green I/PI assay): 7 days; for Residual viable cells (SYBR Green I/PI assay): 50 μM, seven day old stationary phase culture
[3] = tested on: stationary phase B. burgdorferi persisters (strain B31); assay: NCI compound library rescreen, epifluorescence microscope counting; details: for viability at 20 µM / viability at 50 µM: Borreliella burgdorferi, 168 h; for viability at 20 µM: read-out: Residual viable cells (%) 20 μM (epifluorescence microscope counting); for Residual viable cells (%) 20 μM (epifluorescence microscope counting) / Residual viable cells (%) 50 μM (epifluorescence microscope counting): seven day old stationary phase; for Residual viable cells (%) 20 μM (epifluorescence microscope counting) / Residual viable cells (epifluorescence microscope counting) / Residual viable cells (%) 50 μM (epifluorescence microscope counting): 7 days; for Residual viable cells (epifluorescence microscope counting) / Residual viable cells (%) 50 μM (epifluorescence microscope counting): 50 μM; for Residual viable cells (epifluorescence microscope counting): seven day old stationary phase culture
[4] = tested on: round body form of B. burgdorferi; assay: SYBR Green I/PI assay on amoxicillin-induced round body form
[5] = Borreliella burgdorferi, growing B. burgdorferi, read-out: MIC
[6] = read-out: Residual viable cells (%) 20 μM (SYBR Green I/PI assay)
[7] = read-out: Residual viable cells (SYBR Green I/PI assay)
[8] = read-out: Residual viable cells (%) 50 μM (epifluorescence microscope counting)
[9] = read-out: Residual viable cells (epifluorescence microscope counting)
[10] = read-out: Residual viable cells (%) 20 μM (SYBR Green I/PI assay), 20 μM, seven day old stationary phase, 7 days
[11] = read-out: Residual viable cells (SYBR Green I/PI assay), 50 μM, seven day old stationary phase culture, 7 days
[12] = read-out: Activity against persisters (residual viable cell percentage)

MIC [1, 5]: ≤ 0.2 µg/mL
Molecule: Cc1cc(NS(=O)(=O)c2ccc(N)cc2)no1 [Smx, sulfamethoxazole]

Molecule: Cc1cc(C(=C2C=CC(=N)C=C2)c2ccc(N)cc2)ccc1N [NSC93739, 2-Methyl-4,4′-[(4-imino-2,5-cyclohexadien-1-ylidene)methylene]dianiline hydrochloride]
viability at 20 µM [2, 6]: 0%
viability at 50 µM [2, 7]: 0%
viability at 20 µM [3]: 77%
viability at 50 µM [3, 8]: 43%
viability at 50 µM [3, 9]: 43%

Molecule: CCCCCC1=C/C(=C/c2[nH]c(-c3ccc[nH]3)cc2OC)N=C1C [NSC47147, Prodigiosin]
MIC ([1]; Borreliella burgdorferi): ≤ 0.2 µg/mL
MIC ([1]; growing B. burgdorferi): ≦0.2 μg/mL
viability at 20 µM [2, 10]: 0%
viability at 50 µM [2, 11]: 0%
viability at 50 µM [3, 12]: 24%
viability at 20 µM [3]: 45%
viability at 50 µM [3, 8]: 24%
viability at 50 µM [3, 9]: 24%

Molecule: COc1cccc2c1C(=O)c1c(O)c3c(c(O)c1C2=O)C[C@@](O)(C(C)=O)C[C@@H]3OC1CC(N(C)C)C(O)C(C)O1 (some centres unmarked) [NSC258812, Dimethyldaunomycin hydrochloride]
viability at 20 µM [2, 6]: 0%
viability at 50 µM [2, 7]: 0%
viability at 20 µM [3]: 10%
viability at 50 µM [3, 8]: 10%
viability at 50 µM [3, 9]: 10%

Molecule: Cc1ncc([N+](=O)[O-])n1CCO [Metronidazole]
sensitivity of log phase / multiplying B. burgdorferi (words, FIG. 12) [1]: less potent
viability at 50 µM ([4]; Borreliella burgdorferi, 168 h, read-out: Residual viable cells (SYBR Green I/PI assay)): 33%
Ratios of green/red fluorescence, Primary screening ([4]; round body form, 50 μM, 7 days): 6.23
Ratios of green/red fluorescence, Rescreening (first column) ([4]; round body form, 50 μM, 7 days): 6.30
Ratios of green/red fluorescence, Rescreening (second column) ([4]; round body form, 50 μM, 7 days): 6.31

Molecule: O=c1c(O)c(-c2ccc(O)c(O)c2)oc2cc(O)ccc12 [NSC407010, 2-(3,4-dihydroxyphenyl)-3,7-dihydroxy-4H-1-benzopyran-4-one]
viability at 50 µM [2, 11]: 39%
viability at 50 µM [3, 9]: 38%

Molecule: CO[C@@]12[C@H](COC(N)=O)C3=C(C(=O)C(C)=C(N)C3=O)N1C[C@@H]1N[C@@H]12 [NSC26980, Mitomycin]
MIC ([1]; Borreliella burgdorferi): ≤ 0.21 µg/mL
MIC ([1]; growing B. burgdorferi): ≦0.21 μg/mL
viability at 50 µM [2, 11]: 20%
viability at 50 µM [3, 12]: 25%
viability at 50 µM [3, 9]: 25%

Molecule: C[C@]1(Cn2ccnn2)[C@H](C(=O)O)N2C(=O)C[C@H]2S1(=O)=O [tazobactam]
sensitivity of log phase / multiplying B. burgdorferi (words, FIG. 12) [1]: less potent

Molecule: Benzoic acid, 2-hydroxy-, (2,6-pyridinediyldiethylidyne)dihydrazide, nickel complex [NSC617570]
Residual viable cells (%) 20 μM (SYBR Green I/PI assay) [2]: 66%
Residual viable cells (SYBR Green I/PI assay) [2]: 44%
Residual viable cells (%) 20 μM (epifluorescence microscope counting) [3]: 50%
Residual viable cells (epifluorescence microscope counting) [3]: 38%
Residual viable cells (%) 50 μM (epifluorescence microscope counting) [3]: 38%

Molecule: CC[C@@]1(O)C[C@H](O[C@H]2C[C@H](N(C)C)[C@H](O)[C@H](C)O2)c2c(cc3c(c2O)C(=O)c2c(O)ccc(O)c2C3=O)[C@H]1C(=O)OC [NSC267229, Pyrromycin]
MIC ([1]; growing B. burgdorferi): 0.37 to 0.73 µg/mL
Residual viable cells (%) 20 μM (SYBR Green I/PI assay) [2]: 6%
Residual viable cells (SYBR Green I/PI assay) [2]: 0%
Residual viable cells (%) 20 μM (epifluorescence microscope counting) [3]: 20%
Residual viable cells (epifluorescence microscope counting) [3]: 21%
Residual viable cells (%) 50 μM (epifluorescence microscope counting) [3]: 21%
Activity against persisters (residual viable cell percentage) ([3]; stationary phase persisters): 21%

Molecule: COCCOC1=C(Cl)C(=O)c2c(O)ccc(O)c2C1=O [NSC659997, Naphthalene-1,4-dione, 2-chloro-5,8-dihydroxy-3-(2-methoxyethoxy)-]
viability at 20 µM [2, 6]: 40%
viability at 50 µM [2, 7]: 1%
viability at 20 µM [3]: 50%
viability at 50 µM [3, 8]: 28%
viability at 50 µM [3, 9]: 28%

Molecule: O=C1c2cccc(Sc3ccccc3)c2C(=O)c2c(Sc3ccccc3)cccc21 [NSC156516, 1,8-Di(phenylthio)anthraquinone]
viability at 50 µM [2, 11]: 46%
viability at 50 µM [3, 9]: 50%

Molecule: O=C1c2cccc(NCCCNCCO)c2C(=O)c2cccc(NCCCNCCO)c21 [NSC363998, Anthracene-9,10-dione, 1,5-bis[3-[[(2-hydroxyethyl)amino]propyl]amino]-9,10-dihydro-, dihydrochloride]
viability at 20 µM [2, 6]: 22%
viability at 50 µM [2, 7]: 0%
viability at 20 µM [3]: 14%
viability at 50 µM [3, 8]: 13%
viability at 50 µM [3, 9]: 13%

Molecule: O=C1c2ccccc2C(=O)c2c(O)c(NCCNCCO)cc(O)c21 [NSC316157, 9,10-Anthracenedione, 1,4-dihydroxy-2-[[2-[(2-hydroxyethyl)amino]ethyl]amino]-]
viability at 50 µM [2, 7]: 0%
viability at 50 µM [3, 9]: 23%

Molecule: CC1OC(CC(=O)O)CC2=C1C(=O)c1c(O)cccc1C2=O (centres unmarked) [NSC267461, Nanaomycin]
MIC [1, 5]: 0.76 to 1.57 µg/mL (≈ 2.51 to 5.19 µM)
viability at 20 µM [2, 10]: 39%
viability at 50 µM [2, 11]: 34%
viability at 50 µM [3, 12]: 26%
viability at 20 µM [3]: 45%
viability at 50 µM [3, 8]: 26%
viability at 50 µM [3, 9]: 26%
